This is an account of results in ChEMBL document CHEMBL4811223, “Arenarosides A-G, Polyhydroxylated Oleanane-Type Saponins from Polycarpaea arenaria and their Cytotoxic and Antiangiogenic Activities” (J Nat Prod, 2021).

A short description of test [1]: Antiangiogenic activity in endothelial cells assessed as inhibition of tube formation incubated for 18 hrs by matrigel-based inverted microscopic analysis. The settings on record: Endothelial cell. Type of test: functional.
Test [2] relates to A549. Briefly: Cytotoxicity against human A549 cells assessed as cell growth inhibition after 48 hrs by MTT assay. The conditions noted are these: A549, 48 h. Format: functional, cell-based.
Test [3] relates to HCT-116. Briefly: Cytotoxicity against human HCT-116 cells assessed as cell growth inhibition after 48 hrs by MTT assay. Type of test: functional, cell-based. The conditions noted are these: HCT-116, 48 h. Background: Formazan colour is commonly taken as a measure of viable cells.
For test [4], the system named is PC-3. The test can be described thus: Cytotoxicity against human PC-3 cells assessed as cell growth inhibition after 48 hrs by MTT assay. Format: functional, cell-based. The conditions noted are these: PC-3, 48 h.
Test [5] concerns RT-112. The test can be described thus: Cytotoxicity against human RT-112 cells assessed as cell growth inhibition after 48 hrs by MTT assay. Format: functional, cell-based. The conditions noted are these: RT-112, 48 h.

For the molecule `COc1ccc(/C=C\c2cc(OC)c(OC)c(OC)c2)cc1O` [COMBRETASTATIN A4], in test [1], the IC50 was 0.37 µM.
Consider `CC(=O)O[C@H]1CC(C)(C)C[C@H]2C3=CC[C@@H]4[C@@]5(C)CC[C@H](O[C@@H]6OC[C@H](O[C@@H]7O[C@H](CO)[C@@H](O)[C@H](O)[C@H]7O[C@@H]7OC[C@@H](O)[C@H](O)[C@H]7O)[C@H](O)[C@H]6O[C@@H]6O[C@H](CO)[C@@H](O)[C@H](O)[C@H]6O)C(C)(C)[C@@H]5CC[C@@]4(C)[C@]3(C)[C@@H](O)[C@@H](O)[C@@]12CO`, for which the IC50 came to 6.1 µM in test [2]; 7.7 µM in test [3]; 9.4 µM in test [4]; 6.4 µM in test [5]; 1.7 µM in test [1].
For `CC(=O)O[C@@H]1[C@H](O)[C@]2(C)C(=CC[C@@H]3[C@@]4(C)CC[C@H](O[C@@H]5OC[C@H](O[C@@H]6O[C@H](CO)[C@@H](O)[C@H](O)[C@H]6O[C@@H]6OC[C@@H](O)[C@H](O)[C@H]6O)[C@H](O)[C@H]5O[C@@H]5O[C@H](CO)[C@@H](O)[C@H](O)[C@H]5O)C(C)(C)[C@@H]4CC[C@]32C)[C@@H]2CC(C)(C)C[C@H](O)[C@]12CO` the same measures were more than 10 µM, more than 10 µM, more than 10 µM, more than 10 µM and 5.1 µM.
Regarding `CC(=O)O[C@H]1[C@H](OC(C)=O)[C@]2(CO)[C@H](O)[C@H](O)[C@]3(C)C(=CC[C@@H]4[C@@]5(C)CC[C@H](O[C@@H]6OC[C@H](O[C@@H]7O[C@H](CO)[C@@H](O)[C@H](O)[C@H]7O[C@@H]7OC[C@@H](O)[C@H](O)[C@H]7O)[C@H](O)[C@H]6O[C@@H]6O[C@H](CO)[C@@H](O)[C@H](O)[C@H]6O)C(C)(C)[C@@H]5CC[C@]43C)[C@@H]2CC1(C)C`, the IC50 in test [2] was 8.7 µM; in test [3], more than 10 µM; in test [4], more than 10 µM; in test [5] it was 7.3 µM; in test [1], 3.2 µM.
With `CC(=O)OC[C@@]12[C@H](O)C[C@]3(C)C(=CC[C@@H]4[C@@]5(C)CC[C@H](O[C@@H]6OC[C@H](O[C@@H]7O[C@H](CO)[C@@H](O)[C@H](O)[C@H]7O[C@@H]7OC[C@@H](O)[C@H](O)[C@H]7O)[C@H](O)[C@H]6O[C@@H]6O[C@H](CO)[C@@H](O)[C@H](O)[C@H]6O)C(C)(C)[C@@H]5CC[C@]43C)[C@@H]1CC(C)(C)[C@@H](OC(C)=O)[C@@H]2O`, the IC50 is 9 µM in test [2]; 6.8 µM in test [3]; 9.9 µM in test [4]; more than 10 µM in test [5]; 5.2 µM in test [1].
For `CC(=O)OC[C@@]12[C@H](O)[C@H](O)[C@]3(C)C(=CC[C@@H]4[C@@]5(C)CC[C@H](O[C@@H]6OC[C@H](O[C@@H]7O[C@H](CO)[C@@H](O)[C@H](O)[C@H]7O[C@@H]7OC[C@@H](O)[C@H](O)[C@H]7O)[C@H](O)[C@H]6O[C@@H]6O[C@H](CO)[C@@H](O)[C@H](O)[C@H]6O)C(C)(C)[C@@H]5CC[C@]43C)[C@@H]1CC(C)(C)[C@@H](OC(C)=O)[C@@H]2O` the same measures were more than 10 µM, more than 10 µM, more than 10 µM, more than 10 µM and 15.9 µM.
Turning to `CC1(C)C[C@H](O)[C@]2(CO)[C@H](O)[C@H](O)[C@]3(C)C(=CC[C@@H]4[C@@]5(C)CC[C@H](O[C@@H]6OC[C@H](O[C@@H]7O[C@H](CO)[C@@H](O)[C@H](O)[C@H]7O[C@@H]7OC[C@@H](O)[C@H](O)[C@H]7O)[C@H](O)[C@H]6O[C@@H]6O[C@H](CO)[C@@H](O)[C@H](O)[C@H]6O)C(C)(C)[C@@H]5CC[C@]43C)[C@@H]2C1`, the 50% inhibitory concentration (IC50) in test [2] is more than 10 µM; in test [3], more than 10 µM; in test [4] it was more than 10 µM; in test [5] it was more than 10 µM; in test [1], 45.9 µM.
`CC(=O)OC[C@@]12[C@H](O)[C@H](O)[C@]3(C)C(=CC[C@@H]4[C@@]5(C)CC[C@H](O[C@@H]6OC[C@H](O[C@@H]7O[C@H](CO)[C@@H](O)[C@H](O)[C@H]7O[C@@H]7OC[C@@H](O)[C@H](O)[C@H]7O)[C@H](O)[C@H]6O[C@@H]6O[C@H](CO)[C@@H](O)[C@H](O)[C@H]6O)C(C)(C)[C@@H]5CC[C@]43C)[C@@H]1CC(C)(C)C[C@@H]2O`: the IC50 in test [2] was more than 10 µM; in test [3] it was 9.8 µM; in test [4], more than 10 µM; in test [5], 7.8 µM; in test [1], 35.8 µM.
`CC(=O)O[C@@H]1C[C@]2(C)C(=CC[C@@H]3[C@@]4(C)CC[C@H](O[C@@H]5OC[C@H](O[C@@H]6O[C@H](CO)[C@@H](O)[C@H](O)[C@H]6O[C@@H]6OC[C@@H](O)[C@H](O)[C@H]6O)[C@H](O)[C@H]5O[C@@H]5O[C@H](CO)[C@@H](O)[C@H](O)[C@H]5O)C(C)(C)[C@@H]4CC[C@]32C)[C@@H]2CC(C)(C)C[C@H](O)[C@]12CO`: the IC50 in test [2] was more than 10 µM; in test [3], more than 10 µM; in test [4], more than 10 µM; in test [5], more than 10 µM; in test [1], 23.1 µM.
Consider `CC(=O)O[C@H]1C(=O)[C@@]2(C)[C@H]([C@H](OC(=O)c3ccccc3)[C@]3(O)C[C@H](OC(=O)[C@H](O)[C@@H](NC(=O)c4ccccc4)c4ccccc4)C(C)=C1C3(C)C)[C@]1(OC(C)=O)CO[C@@H]1C[C@@H]2O` [PACLITAXEL], for which the values for the IC50 in test [2], in test [4] and in test [5] were 0.7 µM, 0.04 µM and 0.07 µM, respectively.

By IC50 is commonly meant the point on the concentration scale where inhibition reaches its midpoint.
